Reference: the NIST ThermoML archive (doi:10.1021/je020065c)
± gives the expanded uncertainty stated by the source.

Key:
[1] = excess molar enthalpy (molar enthalpy of mixing); xn = mol fraction of the nth substance listed; details: 298.15 K, 101.3 kPa, Liquid
[2] = Boiling temperature at pressure P; details: 101.3 kPa; Liquid; ebulliometry
[3] = 303.1 K; 101.33 kPa; Liquid; pycnometer

Question: What does the source list for `ClCCCl` [1,2-dichloroethane] + CN1CCCC1=O?
Answer: excess molar enthalpy ([1]; x1 = 0.0658): -0.0565 ± 0.00263 kcal/mol; excess molar enthalpy ([1]; x1 = 0.1316): -0.11 ± 0.0043 kcal/mol; excess molar enthalpy ([1]; x1 = 0.1959): -0.159 ± 0.00598 kcal/mol; excess molar enthalpy ([1]; x1 = 0.2633): -0.205 ± 0.00765 kcal/mol; excess molar enthalpy ([1]; x1 = 0.331): -0.248 ± 0.00908 kcal/mol; excess molar enthalpy ([1]; x1 = 0.3947): -0.282 ± 0.0103 kcal/mol; excess molar enthalpy ([1]; x1 = 0.4525): -0.301 ± 0.011 kcal/mol; excess molar enthalpy ([1]; x1 = 0.592): -0.267 ± 0.0098 kcal/mol; excess molar enthalpy ([1]; x1 = 0.6421): -0.246 ± 0.00908 kcal/mol; excess molar enthalpy ([1]; x1 = 0.6925): -0.217 ± 0.00813 kcal/mol; excess molar enthalpy ([1]; x1 = 0.7469): -0.194 ± 0.00717 kcal/mol; excess molar enthalpy ([1]; x1 = 0.8024): -0.162 ± 0.00621 kcal/mol; excess molar enthalpy ([1]; x1 = 0.856): -0.123 ± 0.00478 kcal/mol; excess molar enthalpy ([1]; x1 = 0.9111): -0.0802 ± 0.00335 kcal/mol; excess molar enthalpy ([1]; x1 = 0.9608): -0.0403 ± 0.00198 kcal/mol

Question: With `CN1CCCC1=O` [N-methylpyrrolidone] as the compound, how does the “Boiling temperature at pressure P” value [2] read?
Answer: The value was 202.30 ± 0.5 °C.

Question: And the mass density [3]?
Answer: Its mass density is 1023.4 ± 0.7 kg/m3.

Question: Which results are given for `ClC(Cl)=C(Cl)Cl` [tetrachloroethene]?
Answer: Boiling temperature at pressure P [2]: 121.00 ± 0.5 °C; mass density [3]: 1606.4 ± 1.1 kg/m3

Question: What does the source list for `ClC(Cl)=C(Cl)Cl` [tetrachloroethene] + CN1CCCC1=O?
Answer: excess molar enthalpy ([1]; x1 = 0.039): -0.00239 ± 0.000813 kcal/mol; excess molar enthalpy ([1]; x1 = 0.0887): -0.00292 ± 0.000837 kcal/mol; excess molar enthalpy ([1]; x1 = 0.1357): -0.0012 ± 0.000789 kcal/mol; excess molar enthalpy ([1]; x1 = 0.2415): 0.007 ± 0.000956 kcal/mol; excess molar enthalpy ([1]; x1 = 0.2932): 0.0137 ± 0.00117 kcal/mol; excess molar enthalpy ([1]; x1 = 0.3454): 0.0214 ± 0.00141 kcal/mol; excess molar enthalpy ([1]; x1 = 0.536): 0.0623 ± 0.00263 kcal/mol; excess molar enthalpy ([1]; x1 = 0.6006): 0.0709 ± 0.00311 kcal/mol; excess molar enthalpy ([1]; x1 = 0.6688): 0.0803 ± 0.00335 kcal/mol; excess molar enthalpy ([1]; x1 = 0.742): 0.0775 ± 0.00335 kcal/mol; excess molar enthalpy ([1]; x1 = 0.813): 0.0706 ± 0.00311 kcal/mol; excess molar enthalpy ([1]; x1 = 0.8822): 0.0566 ± 0.00263 kcal/mol; excess molar enthalpy ([1]; x1 = 0.9441): 0.0342 ± 0.00179 kcal/mol

Question: With `ClC=C(Cl)Cl` [trichloroethene] as the compound, how does the “Boiling temperature at pressure P” value [2] read?
Answer: Its value is 87.10 ± 0.5 °C.

Question: And the mass density [3]?
Answer: Its mass density is 1451.2 ± 1 kg/m3.

Question: For `ClC=C(Cl)Cl` [trichloroethene] + CN1CCCC1=O, which excess molar enthalpy ([1]; x1 = 0.0381) is on record?
Answer: Its excess molar enthalpy is -0.0454 ± 0.00215 kcal/mol.

Question: And the excess molar enthalpy ([1]; x1 = 0.0886)?
Answer: Its excess molar enthalpy is -0.106 ± 0.0043 kcal/mol.

Question: What about the excess molar enthalpy ([1]; x1 = 0.1426) of the same compound?
Answer: Its excess molar enthalpy is -0.158 ± 0.00598 kcal/mol.

Question: And the excess molar enthalpy ([1]; x1 = 0.2005)?
Answer: The excess molar enthalpy was -0.216 ± 0.00813 kcal/mol.

Question: And the excess molar enthalpy ([1]; x1 = 0.2675)?
Answer: Its excess molar enthalpy is -0.276 ± 0.01 kcal/mol.

Question: And the excess molar enthalpy ([1]; x1 = 0.3373)?
Answer: The excess molar enthalpy was -0.343 ± 0.0124 kcal/mol.

Question: And the excess molar enthalpy ([1]; x1 = 0.4001)?
Answer: Its excess molar enthalpy is -0.394 ± 0.0141 kcal/mol.

Question: And the excess molar enthalpy ([1]; x1 = 0.6547)?
Answer: Its excess molar enthalpy is -0.343 ± 0.0124 kcal/mol.

Question: What about the excess molar enthalpy ([1]; x1 = 0.7095) of the same compound?
Answer: Its excess molar enthalpy is -0.315 ± 0.0115 kcal/mol.

Question: What about the excess molar enthalpy ([1]; x1 = 0.7643) of the same compound?
Answer: Its excess molar enthalpy is -0.28 ± 0.0103 kcal/mol.

Question: And the excess molar enthalpy ([1]; x1 = 0.8186)?
Answer: Its excess molar enthalpy is -0.23 ± 0.0086 kcal/mol.

Question: And the excess molar enthalpy ([1]; x1 = 0.873)?
Answer: The excess molar enthalpy was -0.176 ± 0.00669 kcal/mol.

Question: And the excess molar enthalpy ([1]; x1 = 0.9254)?
Answer: The excess molar enthalpy was -0.112 ± 0.00454 kcal/mol.

Question: And the excess molar enthalpy ([1]; x1 = 0.9678)?
Answer: Its excess molar enthalpy is -0.0504 ± 0.00234 kcal/mol.
